In ChEMBL document CHEMBL5233206, “An overview on the synthesis of carbohydrate-based molecules with biological activity related to neurodegenerative diseases” (RSC Med Chem, 2021):

Experiments:
Cholinesterase [1] = target: T1, Cholinesterase (Homo sapiens, UniProt P06276)
Description: Binding affinity to BuChE (unknown origin) assessed as inhibition constant incubated for 30 mins by ellman's method

Acetylcholinesterase [2] = target: T2, Acetylcholinesterase (Homo sapiens, UniProt P22303)
Description: Binding affinity to AChE (unknown origin) assessed as inhibition constant incubated for 30 mins by ellman's method

Cholinesterase [3] = target: T1, Cholinesterase; assay: Inhibition of BuChE (unknown origin) at 50 uM incubated for 20 mins by absorbance based analysis relative to control
Acetylcholinesterase [4] = target: T2, Acetylcholinesterase; assay: Inhibition of AChE (unknown origin) at 50 uM incubated for 20 mins by absorbance based analysis relative to control
Acetylcholinesterase [5] = target: T3, Acetylcholinesterase (Electrophorus electricus, UniProt O42275)
T3 sequence (O42275 whole entry): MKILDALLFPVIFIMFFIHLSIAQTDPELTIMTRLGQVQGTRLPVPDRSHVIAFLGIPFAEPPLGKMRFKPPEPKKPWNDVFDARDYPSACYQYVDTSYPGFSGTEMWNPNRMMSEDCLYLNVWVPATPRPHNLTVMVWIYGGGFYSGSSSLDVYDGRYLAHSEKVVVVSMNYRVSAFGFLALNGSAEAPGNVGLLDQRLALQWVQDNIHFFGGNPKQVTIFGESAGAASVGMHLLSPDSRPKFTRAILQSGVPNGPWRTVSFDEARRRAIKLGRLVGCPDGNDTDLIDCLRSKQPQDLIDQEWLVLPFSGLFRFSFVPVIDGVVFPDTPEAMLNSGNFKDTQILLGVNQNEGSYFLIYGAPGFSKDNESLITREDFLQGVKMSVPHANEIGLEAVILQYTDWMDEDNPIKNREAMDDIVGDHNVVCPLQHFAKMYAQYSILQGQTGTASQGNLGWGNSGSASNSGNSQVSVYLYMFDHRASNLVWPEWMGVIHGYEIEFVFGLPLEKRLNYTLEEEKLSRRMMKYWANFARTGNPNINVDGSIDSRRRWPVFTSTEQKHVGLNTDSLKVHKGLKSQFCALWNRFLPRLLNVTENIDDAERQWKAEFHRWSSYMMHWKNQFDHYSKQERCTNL
Description: Binding affinity to electrical eel AChE assessed as inhibition constant incubated for 20 mins by absorbance based analysis

Acetylcholinesterase [6] = target: T4, Acetylcholinesterase (Mus musculus, UniProt P21836); assay: Inhibition of mouse brain AChE; type: tissue-based
T4 sequence (P21836 whole entry): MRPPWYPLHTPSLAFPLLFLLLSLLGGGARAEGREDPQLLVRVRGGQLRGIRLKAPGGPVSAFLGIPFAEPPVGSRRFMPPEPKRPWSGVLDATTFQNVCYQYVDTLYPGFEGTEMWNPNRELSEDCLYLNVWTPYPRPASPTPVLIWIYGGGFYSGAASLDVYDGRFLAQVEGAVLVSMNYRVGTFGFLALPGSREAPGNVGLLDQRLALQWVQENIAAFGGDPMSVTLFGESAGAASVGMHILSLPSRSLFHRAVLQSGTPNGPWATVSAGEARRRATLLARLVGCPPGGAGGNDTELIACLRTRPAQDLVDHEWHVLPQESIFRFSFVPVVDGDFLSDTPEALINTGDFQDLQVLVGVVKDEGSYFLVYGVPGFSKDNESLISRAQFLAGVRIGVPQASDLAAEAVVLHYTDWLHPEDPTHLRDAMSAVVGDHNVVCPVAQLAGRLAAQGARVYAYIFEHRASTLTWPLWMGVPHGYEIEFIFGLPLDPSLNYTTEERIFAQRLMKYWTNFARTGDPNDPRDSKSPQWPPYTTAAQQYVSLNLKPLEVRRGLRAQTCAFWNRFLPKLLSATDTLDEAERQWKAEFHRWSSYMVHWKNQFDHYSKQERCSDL

Cholinesterase [7] = target: Cholinesterase (Mus musculus, UniProt Q03311); assay: Inhibition of mouse serum BuChE; type: cell-free
Cholinesterase (Mus musculus, UniProt Q03311), sequence (Q03311 whole entry): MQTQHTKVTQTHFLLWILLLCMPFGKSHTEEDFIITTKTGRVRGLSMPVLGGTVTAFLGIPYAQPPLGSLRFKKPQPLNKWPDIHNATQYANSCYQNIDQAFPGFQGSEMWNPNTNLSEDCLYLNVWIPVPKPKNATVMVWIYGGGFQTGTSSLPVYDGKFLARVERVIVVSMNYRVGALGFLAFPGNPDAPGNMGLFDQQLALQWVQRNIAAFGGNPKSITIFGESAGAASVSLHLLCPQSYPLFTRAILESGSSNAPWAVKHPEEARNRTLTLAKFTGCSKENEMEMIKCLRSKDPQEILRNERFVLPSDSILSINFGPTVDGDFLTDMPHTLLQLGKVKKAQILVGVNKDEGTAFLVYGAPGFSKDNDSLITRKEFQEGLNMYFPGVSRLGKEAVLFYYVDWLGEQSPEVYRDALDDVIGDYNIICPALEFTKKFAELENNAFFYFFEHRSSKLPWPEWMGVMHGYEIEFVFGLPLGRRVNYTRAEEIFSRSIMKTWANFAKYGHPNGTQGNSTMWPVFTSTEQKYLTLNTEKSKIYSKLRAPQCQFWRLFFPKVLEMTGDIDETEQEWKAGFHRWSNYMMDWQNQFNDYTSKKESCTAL

Cholinesterase [8] = target: T5, Cholinesterase (Equus caballus, UniProt P81908)
T5 sequence (P81908 whole entry): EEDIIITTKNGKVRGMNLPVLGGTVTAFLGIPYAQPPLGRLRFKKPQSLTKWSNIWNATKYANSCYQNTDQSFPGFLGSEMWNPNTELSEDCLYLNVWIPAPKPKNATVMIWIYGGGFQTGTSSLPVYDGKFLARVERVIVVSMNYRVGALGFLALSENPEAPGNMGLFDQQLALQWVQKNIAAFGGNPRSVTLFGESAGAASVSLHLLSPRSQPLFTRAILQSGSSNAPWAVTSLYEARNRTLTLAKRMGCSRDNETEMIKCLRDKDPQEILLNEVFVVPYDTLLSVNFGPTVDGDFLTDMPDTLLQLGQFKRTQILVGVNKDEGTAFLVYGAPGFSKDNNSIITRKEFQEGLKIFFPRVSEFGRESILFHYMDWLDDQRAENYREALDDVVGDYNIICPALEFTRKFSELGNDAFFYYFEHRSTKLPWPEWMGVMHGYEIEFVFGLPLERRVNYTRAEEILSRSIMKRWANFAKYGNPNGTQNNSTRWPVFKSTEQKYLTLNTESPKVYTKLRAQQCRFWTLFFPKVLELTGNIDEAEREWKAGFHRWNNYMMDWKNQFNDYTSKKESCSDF
Description: Inhibition of equine serum BuChE by ellman's method

Acetylcholinesterase [9] = target: T3, Acetylcholinesterase; assay: Inhibition of electrical eel AChE by ellman's method
Acetylcholinesterase [10] = target: T2, Acetylcholinesterase; assay: Inhibition of AChE (unknown origin)
Cholinesterase [11] = target: T1, Cholinesterase; remark: listed apart in the source
Cholinesterase [12] = target: T5, Cholinesterase; assay: Binding affinity to horse serum BuChE using ATCh-iodide as substrate by ellman's method
[13] = Lipophilicity, logP of the compound; type: physicochemical; conditions: octanol/water
Cholinesterase [14] = target: T1, Cholinesterase; assay: Binding affinity to BuChE (unknown origin) assessed as inhibition constant by ellman's method
Homo sapiens = species: Homo sapiens; assay: Selectivity ratio of IC50 for AChE (unknown origin) to IC50 for BuChE (unknown origin)

T1 sequence (P06276 whole entry): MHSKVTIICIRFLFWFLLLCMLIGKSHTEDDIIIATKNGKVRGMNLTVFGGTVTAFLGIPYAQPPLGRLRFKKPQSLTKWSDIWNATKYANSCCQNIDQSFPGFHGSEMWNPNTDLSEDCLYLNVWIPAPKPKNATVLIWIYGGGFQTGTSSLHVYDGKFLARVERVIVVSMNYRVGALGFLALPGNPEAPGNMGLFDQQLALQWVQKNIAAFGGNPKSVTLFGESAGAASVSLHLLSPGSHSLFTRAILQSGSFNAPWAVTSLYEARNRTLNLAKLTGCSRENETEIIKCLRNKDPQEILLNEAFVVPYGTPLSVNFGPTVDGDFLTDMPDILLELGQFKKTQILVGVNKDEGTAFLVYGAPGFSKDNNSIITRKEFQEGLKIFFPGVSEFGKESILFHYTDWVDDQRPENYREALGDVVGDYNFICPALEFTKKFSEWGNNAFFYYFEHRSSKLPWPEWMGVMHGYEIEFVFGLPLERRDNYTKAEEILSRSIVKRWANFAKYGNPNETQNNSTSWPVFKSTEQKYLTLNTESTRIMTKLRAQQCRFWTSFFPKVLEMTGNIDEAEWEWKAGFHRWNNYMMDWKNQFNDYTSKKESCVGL
T2 sequence (P22303 whole entry): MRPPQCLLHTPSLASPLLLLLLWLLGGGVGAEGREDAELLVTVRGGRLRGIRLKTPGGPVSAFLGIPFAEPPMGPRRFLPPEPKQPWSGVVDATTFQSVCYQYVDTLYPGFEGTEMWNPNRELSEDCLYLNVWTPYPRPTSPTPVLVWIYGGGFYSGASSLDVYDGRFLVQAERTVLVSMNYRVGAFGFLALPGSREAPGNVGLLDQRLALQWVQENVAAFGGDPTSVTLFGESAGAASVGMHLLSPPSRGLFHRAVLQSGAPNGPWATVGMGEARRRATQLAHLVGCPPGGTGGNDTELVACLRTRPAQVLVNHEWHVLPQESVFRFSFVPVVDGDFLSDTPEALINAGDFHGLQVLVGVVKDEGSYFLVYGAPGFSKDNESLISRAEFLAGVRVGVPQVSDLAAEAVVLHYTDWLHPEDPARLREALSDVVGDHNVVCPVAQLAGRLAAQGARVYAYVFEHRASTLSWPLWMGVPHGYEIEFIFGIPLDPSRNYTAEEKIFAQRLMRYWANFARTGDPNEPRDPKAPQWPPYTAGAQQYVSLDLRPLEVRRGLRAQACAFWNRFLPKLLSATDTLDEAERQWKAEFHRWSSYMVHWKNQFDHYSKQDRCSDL

Compound `CC(=O)Nc1nc(Cl)c2c(ncn2C2O[C@H](C(=O)O)[C@@H](OC(C)=O)[C@@H](OC(C)=O)[C@H]2OC(C)=O)n1` (some centres undefined) has a Ki (Cholinesterase [1]) of over 100 µM and a Ki (Acetylcholinesterase [2]) of 37.9 µM.
`CCCCCCCCO[C@H]1[C@H](OC(C)=O)[C@@H](Cn2c(=O)c3c(ncn3C)n(C)c2=O)OC(NS(C)(=O)=O)[C@@H]1OC(C)=O` (some centres undefined) showed an inhibition (Cholinesterase [3]) of 52.6% and an inhibition (Acetylcholinesterase [4]) of 28.3%.
In the case of `CCCCCCCCCCCCNC(=O)[C@@H](OCc1ccccc1)[C@H]1OC(OC(C)=O)[C@H](OC(C)=O)[C@H]1OC(C)=O` (some centres undefined), the Ki (Acetylcholinesterase [5]) is reported as over 100 µM.
Work on `CCCCCCCCCCCCNC(=O)[C@@H](OCc1ccccc1)[C@H]1O[C@H](n2cc(-c3ccccc3)nn2)[C@H](OC(C)=O)[C@H]1OCc1ccccc1` yielded a Ki (Acetylcholinesterase [5]) of 9.69 µM.
Compound `CCCCCCCCCCCCNC(=O)[C@@H](OCc1ccccc1)[C@H]1OC(N=[N+]=[N-])[C@H](OC(C)=O)[C@H]1OC(C)=O` (some centres undefined) has a Ki (Acetylcholinesterase [5]) of over 100 µM.
Compound `CC1(C)O[C@H]2O[C@H](CNCCCCCCCCNc3c4c(nc5ccccc35)CCCC4)[C@H](O)[C@H]2O1` has an IC50 (Acetylcholinesterase [6]) of 0.084 µM and an IC50 (Cholinesterase [7]) of 0.011 µM.
`COc1ccc2c(c1)c(=O)c1ccccc1n2CCCCCCn1cc(CO[C@@H]2O[C@H](CO)[C@H](O)[C@H](O)[C@H]2O)nn1` showed an IC50 (Cholinesterase [8]) of 65.6 µM and an IC50 (Acetylcholinesterase [9]) of 44.7 µM.
For `CC1(C)O[C@H]2O[C@H](NCCCCCCCNc3c4c(nc5ccccc35)CCCC4)[C@H](O)[C@H]2O1`, the IC50 (Acetylcholinesterase [6]) was 0.0087 µM and the IC50 (Cholinesterase [7]) was 0.027 µM.
With `COc1ccc2c(c1)c(=O)c1ccccc1n2CCCCCCn1cc(CO[C@@H]2O[C@H](CO)[C@@H](O)[C@H]2O)nn1` the IC50 (Cholinesterase [8]) was 35.1 µM and the IC50 (Acetylcholinesterase [9]) was 81.8 µM.
In the case of `CC1(C)O[C@H]2O[C@H](CNCCCCCCCCCCNc3c4c(nc5ccccc35)CCCC4)[C@H](O)[C@H]2O1`, the IC50 (Acetylcholinesterase [6]) is reported as 0.01 µM and the IC50 (Cholinesterase [7]) is reported as 0.031 µM.
For `CC(=O)Nc1nc(Cl)c2c(ncn2[C@H]2O[C@H](COCc3ccccc3)[C@@H](OCc3ccccc3)[C@H](OCc3ccccc3)[C@@H]2OCc2ccccc2)n1`, the Ki (Cholinesterase [1]) was 0.05 µM.
In the case of `CC1=C(CO[C@@H]2O[C@H](CO[C@@H]3O[C@H](CO)[C@@H](O)[C@H](O)[C@H]3O)[C@@H](O)[C@H](O)[C@H]2O)C(C)(C)CCC1`, the IC50 (Acetylcholinesterase [10]) is reported as 3.2 µM.
Compound `CO[C@@H]1O[C@H](CNCCCCCCCCCCNc2c3c(nc4ccccc24)CCCC3)[C@H]2OC(C)(C)O[C@@H]12` has an IC50 (Acetylcholinesterase [6]) of 0.065 µM and an IC50 (Cholinesterase [7]) of 0.064 µM.
`CO[C@H]1O[C@H](Cn2c(=O)c3c(ncn3C)n(C)c2=O)[C@@H](OC(C)=O)[C@H](OC(C)=O)[C@H]1OC(C)=O` gave a Ki (Acetylcholinesterase [5]) of 4.3 µM and a Ki (Cholinesterase [11]) of 4 µM.
Compound `CO[C@H]1O[C@H](Cn2cnc3c(Cl)nc(NC(C)=O)nc32)[C@@H](OCc2ccccc2)[C@H](OCc2ccccc2)[C@H]1OCc1ccccc1` has a Ki (Acetylcholinesterase [5]) of 7.1 µM and a Ki (Cholinesterase [11]) of under 100 µM.
In the case of `OC[C@H]1O[C@@H](OCCn2cnc3ccccc32)[C@H](O)[C@@H](O)[C@H]1O`, the Ki (Cholinesterase [12]) is reported as 782 µM.
In the case of `O=c1c2ccccc2n(CCCCCCn2cc(CO[C@@H]3O[C@H](CO)[C@@H](O)[C@H](O)[C@H]3O)nn2)c2ccccc12`, the IC50 (Cholinesterase [8]) is reported as 29.3 µM, the logP [13] is reported as 2.14 and the IC50 (Acetylcholinesterase [9]) is reported as 38.2 µM.
With `CC(=O)Nc1nc(Cl)c2c(ncn2C2O[C@H](C(=O)NCc3ccccc3)[C@@H](OC(C)=O)[C@@H](OC(C)=O)[C@H]2OC(C)=O)n1` (some centres undefined) the Ki (Cholinesterase [1]) was over 100 µM and the Ki (Acetylcholinesterase [2]) was 18.7 µM.
With `COc1ccc2c(c1)c(=O)c1ccccc1n2CCCCCCn1cc(CO[C@@H]2O[C@H](CO)[C@@H](O)[C@H](O)[C@H]2O)nn1` the IC50 (Cholinesterase [8]) was 82.3 µM, the logP [13] was 2.14 and the IC50 (Acetylcholinesterase [9]) was 56.1 µM.
In the case of `CCCCCCCCCCCCNC(=O)[C@@H](OCc1ccccc1)[C@H]1OC(OC(C)=O)[C@H](OC(C)=O)[C@H]1OCc1ccccc1` (some centres undefined), the Ki (Acetylcholinesterase [5]) is reported as over 100 µM.
Compound `O=c1c2ccccc2n(CCCCCCn2cc(CO[C@@H]3O[C@H](CO)[C@@H](O)[C@H]3O)nn2)c2ccccc12` has an IC50 (Cholinesterase [8]) of 6.95 µM, a logP [13] of 2.68 and an IC50 (Acetylcholinesterase [9]) of 143 µM. It also gave a Ki (Cholinesterase [14]) of 1.76 µM and a Ratio IC50 (Homo sapiens) of 20.6.
`CO[C@@H]1O[C@H](CNCCCCCCCCCNc2c3c(nc4ccccc24)CCCC3)[C@H]2OC(C)(C)O[C@@H]12` gave an IC50 (Acetylcholinesterase [6]) of 0.09 µM and an IC50 (Cholinesterase [7]) of 0.037 µM.
For `CCCCCCCCCCCCNC(=O)[C@@H](OCc1ccccc1)[C@H]1OC(n2cc(-c3ccccc3)nn2)[C@H](OC(C)=O)[C@H]1OC(C)=O` (some centres undefined), the Ki (Acetylcholinesterase [5]) was 9.5 µM.
`CC(=O)O[C@H]1C(NS(C)(=O)=O)O[C@H](Cn2c(=O)c3c(ncn3C)n(C)c2=O)[C@@H]1OCc1ccccc1` (some centres undefined) gave a Ki (Acetylcholinesterase [5]) of 6.61 µM.
